Earlier results in patent publication US6878388B1, “Vanadium compounds for treating proliferative cell disorders” (Parker Hughes Institute, priority 2000, dated 2005).

Legend:
pharyngonasal cancer = conditions: single assay, Sakurai et al. 1995; cited from earlier work
tumor cell growth = conditions: Kopf-Maier et al. 1983; cited from earlier work

Molecule	activity against pharyngonasal cancer (pharyngonasal cancer)	effect on tumor cell growth (tumor cell growth)
O.O.O=S(=O)([O-])[O-].[O]=[V+2].c1cnc2c(c1)ccc1cccnc12 [[VO(Phen)(H2O)2](SO4), (diaqua)(1,10-phenanthroline)oxovanadium (IV) sulfate]	active	–
Vanadocene dichloride [VDC]	–	arrest tumor cell growth
